In PubChem BioAssay AID1963445 (Molecular Pharmacology Branch, DTP, NCI, 2024):

System: MCF7 complex spheroid growth, % test/control
Assay: Anticancer human tumor MCF7 cell line growth inhibition [Asc];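 also: spheroids exposed to compounds for 7 days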;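 as to viability, T/C: 100% = DMSO vehicle control wells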
Conditions: for IC50: curve of first compound; for viability, T/C: stronger effect = lower value
Summary of the method: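 Concentration series start at each agent's clinical Cmax, or at 10 microM when none is established, and drop in half-log steps; agents are applied alone or together to complex spheroids built with HUVEC and hMSC.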

## NC(=O)C(=Cn1cnc(-c2cc(C(F)(F)F)cc(C(F)(F)F)c2)n1)c1cncnc1 + Cc1c(S(C)(=O)=O)c(-c2cc(F)cc(N3CCN(c4ccc(NS(=O)(=O)c5ccc(NC(CCN6CCC(C(=O)OCCCP(=O)(O)O)CC6)CSc6ccccc6)c(S(=O)(=O)C(F)(F)F)c5)cc4)CC3)c2)c(-c2ccc(Cl)cc2)n1C(C)C
Second compound 0.0316 µM
  IC50: 76.6 nM
Second compound 0.1 µM
  IC50: 51.6 nM
Second compound 0.316 µM
  IC50: 35.1 nM
Second compound 1 µM
  IC50: 39.8 nM
Second compound 3.16 µM
  IC50: 27.3 nM
Second compound 10 µM
  IC50: 62.6 nM
Second compound 0.0316 µM, first compound 0.000949 µM
  viability, T/C: 94.4%
Second compound 0.0316 µM, first compound 0.003 µM
  viability, T/C: 88%
Second compound 0.0316 µM, first compound 0.00949 µM
  viability, T/C: 89.3%
Second compound 0.0316 µM, first compound 0.03 µM
  viability, T/C: 89.7%
Second compound 0.0316 µM, first compound 0.0949 µM
  viability, T/C: 40.9%
Second compound 0.0316 µM, first compound 0.3 µM
  viability, T/C: 16.8%
Second compound 0.1 µM, first compound 0.000949 µM
  viability, T/C: 87.6%
Second compound 0.1 µM, first compound 0.003 µM
  viability, T/C: 82.8%
Second compound 0.1 µM, first compound 0.00949 µM
  viability, T/C: 81.8%
Second compound 0.1 µM, first compound 0.03 µM
  viability, T/C: 76.4%
Second compound 0.1 µM, first compound 0.0949 µM
  viability, T/C: 20.3%
Second compound 0.1 µM, first compound 0.3 µM
  viability, T/C: 15.7%
Second compound 0.316 µM, first compound 0.000949 µM
  viability, T/C: 90.5%
Second compound 0.316 µM, first compound 0.003 µM
  viability, T/C: 87.4%
Second compound 0.316 µM, first compound 0.00949 µM
  viability, T/C: 70.1%
Second compound 0.316 µM, first compound 0.03 µM
  viability, T/C: 60.9%
Second compound 0.316 µM, first compound 0.0949 µM
  viability, T/C: 19.7%
Second compound 0.316 µM, first compound 0.3 µM
  viability, T/C: 16.4%
Second compound 1 µM, first compound 0.000949 µM
  viability, T/C: 89%
Second compound 1 µM, first compound 0.003 µM
  viability, T/C: 75.8%
Second compound 1 µM, first compound 0.00949 µM
  viability, T/C: 73.8%
Second compound 1 µM, first compound 0.03 µM
  viability, T/C: 61%
Second compound 1 µM, first compound 0.0949 µM
  viability, T/C: 13.9%
Second compound 1 µM, first compound 0.3 µM
  viability, T/C: 18.8%
Second compound 3.16 µM, first compound 0.000949 µM
  viability, T/C: 70.4%
Second compound 3.16 µM, first compound 0.003 µM
  viability, T/C: 73.4%
Second compound 3.16 µM, first compound 0.00949 µM
  viability, T/C: 77%
Second compound 3.16 µM, first compound 0.03 µM
  viability, T/C: 47.9%
Second compound 3.16 µM, first compound 0.0949 µM
  viability, T/C: 22.5%
Second compound 3.16 µM, first compound 0.3 µM
  viability, T/C: 18.4%
Second compound 10 µM, first compound 0.000949 µM
  viability, T/C: 121%
Second compound 10 µM, first compound 0.003 µM
  viability, T/C: 131%
Second compound 10 µM, first compound 0.00949 µM
  viability, T/C: 102%
Second compound 10 µM, first compound 0.03 µM
  viability, T/C: 90.6%
Second compound 10 µM, first compound 0.0949 µM
  viability, T/C: 25.5%
Second compound 10 µM, first compound 0.3 µM
  viability, T/C: 16.8%

## NC1CCC(NC2CC2c2ccccc2)CC1 (centres undefined) + Cc1c(S(C)(=O)=O)c(-c2cc(F)cc(N3CCN(c4ccc(NS(=O)(=O)c5ccc(NC(CCN6CCC(C(=O)OCCCP(=O)(O)O)CC6)CSc6ccccc6)c(S(=O)(=O)C(F)(F)F)c5)cc4)CC3)c2)c(-c2ccc(Cl)cc2)n1C(C)C
Second compound 0.0316 µM
  IC50: > 100 nM
Second compound 0.1 µM
  IC50: > 100 nM
Second compound 0.316 µM
  IC50: > 100 nM
Second compound 1 µM
  IC50: > 100 nM
Second compound 3.16 µM
  IC50: > 100 nM
Second compound 10 µM
  IC50: > 100 nM
Second compound 0.0316 µM, first compound 0.000316 µM
  viability, T/C: 120%
Second compound 0.0316 µM, first compound 0.001 µM
  viability, T/C: 93.7%
Second compound 0.0316 µM, first compound 0.00316 µM
  viability, T/C: 93.3%
Second compound 0.0316 µM, first compound 0.01 µM
  viability, T/C: 103%
Second compound 0.0316 µM, first compound 0.0316 µM
  viability, T/C: 99.9%
Second compound 0.0316 µM, first compound 0.1 µM
  viability, T/C: 106%
Second compound 0.1 µM, first compound 0.000316 µM
  viability, T/C: 96.7%
Second compound 0.1 µM, first compound 0.001 µM
  viability, T/C: 106%
Second compound 0.1 µM, first compound 0.00316 µM
  viability, T/C: 96.3%
Second compound 0.1 µM, first compound 0.01 µM
  viability, T/C: 115%
Second compound 0.1 µM, first compound 0.0316 µM
  viability, T/C: 115%
Second compound 0.1 µM, first compound 0.1 µM
  viability, T/C: 97.1%
Second compound 0.316 µM, first compound 0.000316 µM
  viability, T/C: 95.4%
Second compound 0.316 µM, first compound 0.001 µM
  viability, T/C: 87.7%
Second compound 0.316 µM, first compound 0.00316 µM
  viability, T/C: 113%
Second compound 0.316 µM, first compound 0.01 µM
  viability, T/C: 97.1%
Second compound 0.316 µM, first compound 0.0316 µM
  viability, T/C: 91.7%
Second compound 0.316 µM, first compound 0.1 µM
  viability, T/C: 100%
Second compound 1 µM, first compound 0.000316 µM
  viability, T/C: 85.4%
Second compound 1 µM, first compound 0.001 µM
  viability, T/C: 82.6%
Second compound 1 µM, first compound 0.00316 µM
  viability, T/C: 95%
Second compound 1 µM, first compound 0.01 µM
  viability, T/C: 84.5%
Second compound 1 µM, first compound 0.0316 µM
  viability, T/C: 102%
Second compound 1 µM, first compound 0.1 µM
  viability, T/C: 92.9%
Second compound 3.16 µM, first compound 0.000316 µM
  viability, T/C: 96.8%
Second compound 3.16 µM, first compound 0.001 µM
  viability, T/C: 83.8%
Second compound 3.16 µM, first compound 0.00316 µM
  viability, T/C: 87.5%
Second compound 3.16 µM, first compound 0.01 µM
  viability, T/C: 98.6%
Second compound 3.16 µM, first compound 0.0316 µM
  viability, T/C: 83.5%
Second compound 3.16 µM, first compound 0.1 µM
  viability, T/C: 127%
Second compound 10 µM, first compound 0.000316 µM
  viability, T/C: 150%
Second compound 10 µM, first compound 0.001 µM
  viability, T/C: 195%
Second compound 10 µM, first compound 0.00316 µM
  viability, T/C: 149%
Second compound 10 µM, first compound 0.01 µM
  viability, T/C: 215%
Second compound 10 µM, first compound 0.0316 µM
  viability, T/C: 186%
Second compound 10 µM, first compound 0.1 µM
  viability, T/C: 161%
